The results in this text go back to patent US9051304B2, “Carboxamide compounds and their use as calpain inhibitors V” (AbbVie Deutschland GmbH & Co. KG, priority 2009, dated 2015).

What all share (assay type): biochemical
Assay [1] addresses T1, calpain-I isolated from human erythrocytes (Homo sapiens, UniProt P07384).
T1 construct: calpain-I—isolated from human erythrocytes; purchased Calbiochem 208713; host or cells: human erythrocytes (tissue isolate)
T1 sequence (P07384 1-714): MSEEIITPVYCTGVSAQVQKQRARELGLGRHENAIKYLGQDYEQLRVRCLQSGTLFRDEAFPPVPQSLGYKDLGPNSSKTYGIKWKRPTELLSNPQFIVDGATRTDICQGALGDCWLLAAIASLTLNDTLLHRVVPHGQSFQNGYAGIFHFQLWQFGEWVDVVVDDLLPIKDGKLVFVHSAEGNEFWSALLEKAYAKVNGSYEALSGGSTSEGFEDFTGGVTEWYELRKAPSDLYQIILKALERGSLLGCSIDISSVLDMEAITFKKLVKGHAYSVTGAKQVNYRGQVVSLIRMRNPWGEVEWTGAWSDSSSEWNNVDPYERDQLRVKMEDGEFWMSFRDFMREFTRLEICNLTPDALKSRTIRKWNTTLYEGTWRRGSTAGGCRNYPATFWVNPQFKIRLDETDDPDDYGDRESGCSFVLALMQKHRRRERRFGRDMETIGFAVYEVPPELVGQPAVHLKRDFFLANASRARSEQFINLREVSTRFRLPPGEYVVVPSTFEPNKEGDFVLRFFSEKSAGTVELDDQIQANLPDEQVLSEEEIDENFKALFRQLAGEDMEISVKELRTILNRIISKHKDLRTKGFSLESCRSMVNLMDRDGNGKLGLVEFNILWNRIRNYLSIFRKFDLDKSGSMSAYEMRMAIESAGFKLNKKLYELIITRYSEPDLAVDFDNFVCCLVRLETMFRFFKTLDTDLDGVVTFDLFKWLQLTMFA
T1 sequence (P04632 1-268 partner): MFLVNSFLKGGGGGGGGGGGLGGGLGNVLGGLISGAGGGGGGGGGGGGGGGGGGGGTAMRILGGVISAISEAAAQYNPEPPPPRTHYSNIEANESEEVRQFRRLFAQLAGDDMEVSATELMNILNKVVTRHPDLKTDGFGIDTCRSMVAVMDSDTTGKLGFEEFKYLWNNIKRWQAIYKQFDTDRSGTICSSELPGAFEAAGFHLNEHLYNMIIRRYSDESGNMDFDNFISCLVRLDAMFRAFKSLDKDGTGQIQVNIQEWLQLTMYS
Nature of the assay: Calpain I enzyme inhibition, kinetic fluorescence assay. To be noted: apparent Ki from IC50 by Cheng-Prussoff; human erythrocyte calpain-I. Here is the method: (§1) I Enzyme Inhibition in vitro:
(§2) Testing for blockade of the corresponding enzymic activities was carried out by means of kinetic fluorescence assays (excitation 390 nm, emission 460 nm).
(§3) Apparent Ki values were calculated from the experimentally determined IC50 values by the Cheng-Prussoff relation assuming a reversible competitive enzyme inhibition.
20 nM calpain-I—isolated from human erythrocytes (Calbiochem #208713), 100 μM Suc-Leu-Tyr-AMC (Bachem #I-1355) as substrate in buffer with 62 mM imidazole, 0.3 mM CaCl2, 0.10% CHAPS, 0.05% BSA, 1 mM DTT at pH 7.3 and room temperature.

Assay [2] has as its target T2, cathepsin K activated from recombinant human procathepsin K (Homo sapiens, UniProt P43235).
T2 construct: purchased Calbiochem 342001; host or cells: E. coli
T2 sequence (P43235 115-329): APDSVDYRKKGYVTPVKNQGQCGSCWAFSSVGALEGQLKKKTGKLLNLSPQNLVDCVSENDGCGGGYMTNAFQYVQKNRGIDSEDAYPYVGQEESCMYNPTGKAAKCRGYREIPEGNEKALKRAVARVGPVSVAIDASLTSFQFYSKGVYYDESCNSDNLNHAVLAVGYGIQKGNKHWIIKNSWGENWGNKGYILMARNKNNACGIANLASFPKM
Nature of the assay: Cathepsin K enzyme inhibition, kinetic fluorescence assay. To be noted: selectivity ratio vs calpain. Here is the method: as §1, §2, §3
3 nM cathepsin K—activated from recombinant human procathepsin K from E. coli (Calbiochem #342001), 10 μM Z-Gly-Pro-Arg-AMC (Biomol #P-142) as substrate in 50 mM MES, 2 mM EDTA, 0.05% Brij 35, 2.5 mM L-cysteine, pH 6.0, room temperature.

Assay [3] concerns the target T3, cathepsin B isolated from human liver (Homo sapiens, UniProt P07858).
T3 construct: cathepsin B—isolated from human liver; purchased Calbiochem 219362; host or cells: human liver (tissue isolate)
Nature of the assay: Cathepsin B enzyme inhibition, kinetic fluorescence assay. To be noted: selectivity ratio vs calpain. Here is the method: as §1, §2, §3
0.25 nM cathepsin B—isolated from human liver (Calbiochem #219362), 100 μM Z-Phe-Arg-AMC (Bachem #I-1160) as substrate 50 mM MES, 2 mM EDTA, 0.05% Brij 35, 2.5 mM L-cysteine, pH 6.0, room temperature.

The target of assay [4] is T4, cathepsin L isolated from human liver (Homo sapiens, UniProt P07711).
T4 construct: cathepsin L—isolated from human liver; purchased Calbiochem 219402; host or cells: human liver (tissue isolate)
T4 sequence (P07711 114-333): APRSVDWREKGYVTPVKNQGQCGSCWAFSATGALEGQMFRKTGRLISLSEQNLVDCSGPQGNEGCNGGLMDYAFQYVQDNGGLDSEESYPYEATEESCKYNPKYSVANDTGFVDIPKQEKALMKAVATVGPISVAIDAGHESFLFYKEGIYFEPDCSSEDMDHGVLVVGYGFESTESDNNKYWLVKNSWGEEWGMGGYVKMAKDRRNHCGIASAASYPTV
Nature of the assay: Cathepsin L enzyme inhibition, kinetic fluorescence assay. To be noted: selectivity ratio vs calpain. Here is the method: as §1, §2, §3
1 nM cathepsin L—isolated from human liver (Calbiochem #219402), 2 μM Z-Phe-Arg-AMC (Bachem #I-1160) as substrate in 50 mM MES, 2 mM EDTA, 0.05% Brij 35, 2.5 mM L-cysteine, pH 6.0, room temperature.

Assay [5] has as its target T5, recombinant human cathepsin S (Homo sapiens, UniProt P25774).
T5 construct: purchased Calbiochem 219343; host or cells: E. coli
Nature of the assay: Cathepsin S enzyme inhibition, kinetic fluorescence assay. To be noted: selectivity ratio vs calpain. How it is done: as §1, §2, §3
0.5 nM recombinant human cathepsin S from E. coli (Calbiochem #219343), 20 μM Z-Val-Val-Arg-AMC (Bachem #I-1540) as substrate in 50 mM MES, 2 mM EDTA, 0.05% Brij 35, 2.5 mM L-cysteine, pH 6.0, room temperature.

A value given as a limit tells only on which side of the number the result lay.

T5 sequence (P25774 115-331): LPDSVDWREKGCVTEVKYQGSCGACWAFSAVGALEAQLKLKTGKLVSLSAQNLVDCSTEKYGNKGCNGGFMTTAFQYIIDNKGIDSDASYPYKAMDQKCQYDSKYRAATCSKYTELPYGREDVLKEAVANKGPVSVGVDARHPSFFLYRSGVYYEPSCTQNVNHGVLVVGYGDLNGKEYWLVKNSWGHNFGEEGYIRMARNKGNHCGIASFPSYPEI

On to `NC(=O)C(=O)C(Cc1ccccc1)NC(=O)c1cccnc1-n1ccc(-c2ccc(F)cc2)n1` (stereo not drawn) [28 (comp.), N-(3-Amino-1-benzyl-2,3-dioxopropyl)-2-[3-(4-fluorophenyl)-1H-pyrazol-1-yl]nicotinamide, reference compound], for which, in assay [1], the Ki was < 200 nM.

Consider `CONC(=O)C(=O)C(Cc1ccccc1)NC(=O)c1cccnc1-n1ccc(-c2ccc(F)cc2)n1` (stereo not drawn) [Example 1, 2-[3-(4-Fluorophenyl)-1H-pyrazol-1-yl]-N-[4-(methoxyamino)-3,4-dioxo-1-phenylbutan-2-yl]pyridine-3-carboxamide], for which the Ki in assay [1] lay in the range of 200 to 300 nM.

For the compound `CONC(=O)C(=O)C(Cc1ccccc1)NC(=O)c1cccnc1-n1ccc(-c2ccccc2)n1` (stereo not drawn) [Example 2, N-(4-(Methoxyamino)-3,4-dioxo-1-phenylbutan-2-yl)-2-(3-phenyl-1H-pyrazol-1-yl)nicotinamide], the Ki in assay [1] is < 200 nM.

For the compound `CONC(=O)C(=O)C(Cc1ccccc1)NC(=O)c1cccnc1-n1cc(F)c(-c2ccccc2)n1` (stereo not drawn) [Example 3, 2-(4-Fluoro-3-phenyl-1H-pyrazol-1-yl)-N-(4-(methoxyamino)-3,4-dioxo-1-phenylbutan-2-yl)nicotinamide], the Ki in assay [1] was < 200 nM.

`CONC(=O)C(=O)C(Cc1ccccc1)NC(=O)c1cccnc1-n1cc(C)c(-c2ccccc2)n1` (stereo not drawn) [Example 4, N-[4-(Methoxyamino)-3,4-dioxo-1-phenylbutan-2-yl]-2-(4-methyl-3-phenyl-1H-pyrazol-1-yl)pyridine-3-carboxamide]: in assay [1], the Ki lay in the range of 300 to 600 nM.

`CONC(=O)C(=O)C(Cc1ccc(F)cc1)NC(=O)c1cccnc1-n1ccc(-c2ccccc2)n1` (stereo not drawn) [Example 5, N-(1-(4-Fluorophenyl)-4-(methoxyamino)-3,4-dioxo-butan-2-yl)-2-(3-phenyl-1H-pyrazol-1-yl)nicotinamide]: the Ki in assay [1] fell in the range of 300 to 600 nM.

In the case of `CONC(=O)C(=O)C(Cc1cccc(F)c1)NC(=O)c1cccnc1-n1ccc(-c2ccccc2)n1` (stereo not drawn) [Example 6, N-(1-(3-Fluorophenyl)-4-(methoxyamino)-3,4-dioxobutan-2-yl)-2-(3-phenyl-1H-pyrazol-1-yl)nicotinamide], in assay [1], the Ki is 200 to 300 nM.

Consider `C=CCONC(=O)C(=O)C(Cc1ccccc1)NC(=O)c1cccnc1-n1ccc(-c2ccccc2)n1` (stereo not drawn) [Example 8, N-(4-(Allyloxyamino)-3,4-dioxo-1-phenylbutan-2-yl)-2-(3-phenyl-1H-pyrazol-1-yl)nicotinamide], for which, in assay [1], the Ki was < 200 nM.

As for `CONC(=O)C(=O)C(Cc1ccccc1)NC(=O)c1cccnc1-n1cc(Cl)c(-c2ccccc2)n1` (stereo not drawn) [Example 10, 2-(4-Chloro-3-phenyl-1H-pyrazol-1-yl)-N-(4-(methoxyamino)-3,4-dioxo-1-phenylbutan-2-yl)nicotinamide], the “Sel cat. K (Ki(cathepsin K)/Ki(calpain) ratio)” value in assay [2] is “+ (+ means 2≦Ki(cathepsin K)/Ki(calpain)≦4)”. Besides, the “Sel cat. B (Ki(cathepsin B)/Ki(calpain) ratio)” value in assay [3] was “∘”. Also, the “Sel cat. L (Ki(cathepsin L)/Ki(calpain) ratio)” value in assay [4] is listed as “++ (++ means 10<Ki(cathepsin L)/Ki(calpain)≦50)”. The “Sel cat. S (Ki(cathepsin S)/Ki(calpain) ratio)” value in assay [5] is given as “++ (++ means 10<Ki(cathepsin S)/Ki(calpain)≦50)”. Also, the Ki in assay [1] lay in the range of 300 to 600 nM.

As to `CC(C)ONC(=O)C(=O)C(Cc1ccccc1)NC(=O)c1cccnc1-n1ccc(-c2ccccc2)n1` (stereo not drawn) [Example 11, N-[4-(Isopropoxyamino)-3,4-dioxo-1-phenyl-2-butanyl]-2-(3-phenyl-1H-pyrazol-1-yl)nicotinamide], the Ki in assay [1] was < 200 nM.

Turning to `CCCONC(=O)C(=O)C(Cc1ccccc1)NC(=O)c1cccnc1-n1ccc(-c2ccccc2)n1` (stereo not drawn) [Example 12, N-[3,4-Dioxo-1-phenyl-4-(propoxyamino)-2-butanyl]-2-(3-phenyl-1H-pyrazol-1-yl)nicotinamide], the Ki in assay [1] was < 200 nM.

On to `CONC(=O)C(=O)C(Cc1ccccc1)NC(=O)c1cccnc1-n1ccc(-c2ccc(N3CCOCC3)cc2)n1` (stereo not drawn) [Example 13, N-[4-(Methoxyamino)-3,4-dioxo-1-phenyl-2-butanyl]-2-{3-[4-(4-morpholinyl)phenyl]-1H-pyrazol-1-yl}nicotinamide], for which the “Sel cat. K (Ki(cathepsin K)/Ki(calpain) ratio)” value in assay [2] was “+ (+ means 2≦Ki(cathepsin K)/Ki(calpain)≦4)”. Also, in assay [3], the “Sel cat. B (Ki(cathepsin B)/Ki(calpain) ratio)” value was “∘”. Moreover, the “Sel cat. L (Ki(cathepsin L)/Ki(calpain) ratio)” value in assay [4] is “++ (++ means 10<Ki(cathepsin L)/Ki(calpain)≦50)”. The “Sel cat. S (Ki(cathepsin S)/Ki(calpain) ratio)” value in assay [5] was “++ (++ means 10<Ki(cathepsin S)/Ki(calpain)≦50)”. The Ki in assay [1] fell in the range of 300 to 600 nM.

Consider `O=C(NOC1CCCC1)C(=O)C(Cc1ccccc1)NC(=O)c1cccnc1-n1ccc(-c2ccccc2)n1` (stereo not drawn) [Example 17, N-{4-[(Cyclopentyloxy)amino]-3,4-dioxo-1-phenyl-2-butanyl}-2-(3-phenyl-1H-pyrazol-1-yl)nicotinamide], for which, in assay [1], the Ki was in the range of 200 to 300 nM.

Turning to `CCONC(=O)C(=O)C(Cc1ccc(F)cc1)NC(=O)c1cccnc1-n1ccc(-c2ccccc2)n1` (stereo not drawn) [Example 18, N-[4-(Ethoxyamino)-1-(4-fluorophenyl)-3,4-dioxo-2-butanyl]-2-(3-phenyl-1H-pyrazol-1-yl)nicotinamide], the Ki in assay [1] is < 200 nM.

For `CCONC(=O)C(=O)C(Cc1ccccc1)NC(=O)c1cccnc1-n1cc(F)c(-c2ccccc2)n1` (stereo not drawn) [Example 19, N-[4-(Ethoxyamino)-3,4-dioxo-1-phenyl-2-butanyl]-2-(4-fluoro-3-phenyl-1H-pyrazol-1-yl)nicotinamide], the Ki in assay [1] was < 200 nM.

For the compound `O=C(NOC1CCC1)C(=O)C(Cc1ccccc1)NC(=O)c1cccnc1-n1ccc(-c2ccccc2)n1` (stereo not drawn) [Example 20, N-{4-[(Cyclobutyloxy)amino]-3,4-dioxo-1-phenyl-2-butanyl}-2-(3-phenyl-1H-pyrazol-1-yl)nicotinamide], in assay [1], the Ki was < 200 nM.

`O=C(NOCCN1CCOCC1)C(=O)C(Cc1ccccc1)NC(=O)c1cccnc1-n1ccc(-c2ccccc2)n1` (stereo not drawn) [Example 22, N-(4-{[2-(4-Morpholinyl)ethoxy]amino}-3,4-dioxo-1-phenyl-2-butanyl)-2-(3-phenyl-1H-pyrazol-1-yl)nicotinamide]: the Ki in assay [1] is 200 to 300 nM.

`O=C(NOCC1CC1)C(=O)C(Cc1ccccc1)NC(=O)c1cccnc1-n1ccc(-c2ccccc2)n1` (stereo not drawn) [Example 23, N-{4-[(Cyclopropylmethoxy)amino]-3,4-dioxo-1-phenyl-2-butanyl}-2-(3-phenyl-1H-pyrazol-1-yl)nicotinamide]: in assay [1], the Ki was < 200 nM.

On to `CONC(=O)C(=O)C(Cc1ccccc1)NC(=O)c1cccnc1-n1ccc(-c2ccccc2F)n1` (stereo not drawn) [Example 25, 2-[3-(2-Fluorophenyl)-1H-pyrazol-1-yl]-N-[4-(methoxyamino)-3,4-dioxo-1-phenyl-2-butanyl]nicotinamide], for which the Ki in assay [1] is < 200 nM.
